{"source": "patent US20110020312A1", "about": "“METHODS FOR TREATMENT OF METABOLIC DISORDERS USING EPIMETABOLIC SHIFTERS, MULTIDIMENSIONAL INTRACELLULAR MOLECULES, OR ENVIRONMENTAL INFLUENCERS” (priority 2009, published 2011)", "key": {"HASMC cells": {"system": "HASMC cells", "assay": "Extracellular acidification rate (ECAR), SeaHorse XF analyzer", "type": "cell-based, human", "conditions": "hyperglycemic HASMC cells in hypoxic conditions", "text": "(§1) Environmental influencers (e.g., MIMs or Epi-shifters) may also be identified by changes in cellular energetics. One example of the measurement of cellular energetics are the real-time measures of the consumption of molecular oxygen and/or the change in pH of the media of a cell culture. For example, the ability of a potential epi-shifter to modulate the metabolic state of a cell may be analyzed using, for example, the XF24 Analyzer (Seahorse, Inc.). This technology allows for real time detection of oxygen and pH changes in a monolayer of cells in order to evaluate the bioenergetics of a cell microenvironment. The XF24 Analyzer measures and compares the rates of oxygen consumption (OCR), which is a measure of aerobic metabolism, and extracellular acidification (ECAR), which is a measure of glycolysis, both key indicators of cellular energetics.\n(§2) (SeaHorse Biosciences Inc, North Billerica, Mass.).\nIn this experiment, the OCR and extracellular acidification rate (ECAR) in normal cells lines were obtained in the presence and absence of CoQ10 to determine baseline values. It was observed that in its native nutrient environment, the basal OCR rates in normal cells lines are different, and are usually a function of the physiological roles of the cells in the body.\nIn Table 52 the measured baseline ECAR values (mpH/min) in HASMC were higher compared to that of HDFa. […]"}, "[1]": {"conditions": "cited from earlier work"}, "PaCa2 cells": {"system": "PaCa2 cells", "assay": "Nexin assay for apoptosis (Annexin-V-PE/7-AAD flow cytometry), 24 h Q10", "type": "cell-based", "conditions": "50 μM Q10 and 100 μM Q10, 24 hours", "text": "The 7AAD dye will enter into cells with permeabilized cell membranes; primarily those cells that are in late apoptosis. Annexin-V-PE is a dye that binds to Phosphotidyl serine, which is exposed on the outer surface of the plasma membrane in early apoptotic cells. The Nexin reagent thus can be used to differentiate between different populations of apoptotic cells in a flow cytometer."}, "SCC cells": {"system": "SCC cells", "assay": "Real-time PCR Diabetes Array", "type": "cell-based", "conditions": "100 μM", "text": "The control cells were untreated cells."}, "normal fibroblast": {"system": "normal fibroblast", "assay": "Bcl2 level after co-administration of CoQ-10 and VEGF", "type": "cell-based", "conditions": "co-administration with VEGF"}, "SkBr-3 cells": {"system": "SkBr-3 cells", "assay": "Real-time PCR Apoptosis Array", "type": "cell-based, human", "procedure": "Changes in mRNA levels were evaluated using real-time PCR quantification to assess mRNA levels in pre-selected subsets containing […] pathway specific targets.\nFor the interpretation of mRNA results, the genes that were altered in their mRNA transcription by a two-fold level were identified and evaluated. The level of gene transcription to produce mRNA only provides a rough estimate of potential changes in the level of the expressed protein. The skilled artisan will appreciate that each mRNA may have different rates at which it is degraded or its translation inefficiently, thus resulting in differing amounts of protein.\nThe assay method of RT-PCR was utilized to provide a measure of mRNA level changes to a total of 84 apoptotic pathway related proteins."}, "[2]": {"system": "PaCa-2 pancreatic cancer cells", "assay": "Oxygen consumption rate (OCR), SeaHorse XF analyzer", "type": "cell-based", "conditions": "absence and presence of stressors (FIG. 32)", "text": "as §1, §2\n(§3) In contrast, cancer cells (e.g., MCF-7, PaCa-2) are inherently primed to culture at higher levels of glucose compared to normal cells due to their glycolytic phenotype for maintenance in culture."}, "[3]": {"system": "MCF-7 breast cancer cells", "assay": "Oxygen consumption rate (OCR), SeaHorse XF analyzer", "type": "cell-based", "conditions": "absence and presence of stressors (FIG. 31)", "text": "as §1, §2, §3"}}}
{"compound": "COC1=C(OC)C(=O)C(C/C=C(\\C)CC/C=C(\\C)CC/C=C(\\C)CC/C=C(\\C)CC/C=C(\\C)CC/C=C(\\C)CC/C=C(\\C)CC/C=C(\\C)CC/C=C(\\C)CCC=C(C)C)=C(C)C1=O", "note": "[Q10, Coenzyme Q10]", "values": [{"measurement": "ECAR rates", "setting": "HASMC cells", "result": "downward trend"}, {"measurement": "solubility in water", "setting": "[1]", "result": "insoluble in water"}, {"measurement": "increase in both early and late apoptotic cells", "setting": "PaCa2 cells", "result": "5-10 % of gated cells"}, {"measurement": "TNFRSF1A gene Regulation", "setting": "SCC cells; at 6 and 24 hours", "result": "Down regulated"}, {"measurement": "G6PD gene Regulation", "setting": "SCC cells; at 6 hours", "result": "Down regulated"}, {"measurement": "ICAM1 gene Regulation", "setting": "SCC cells; at 6 hours", "result": "Down regulated"}, {"measurement": "INPPL1 gene Regulation", "setting": "SCC cells; at 6 hours", "result": "Down regulated"}, {"measurement": "NOS3 gene Regulation", "setting": "SCC cells; at 6 hours", "result": "Down regulated"}, {"measurement": "PIK3CD gene Regulation", "setting": "SCC cells; at 6 hours", "result": "Down regulated"}, {"measurement": "PPARA gene Regulation", "setting": "SCC cells; at 6 hours", "result": "Down regulated"}, {"measurement": "PYGL gene Regulation", "setting": "SCC cells; at 6 hours", "result": "Down regulated"}, {"measurement": "SREBF1 gene Regulation", "setting": "SCC cells; at 6 hours", "result": "Down regulated"}, {"measurement": "STXBP2 gene Regulation", "setting": "SCC cells; at 6 hours", "result": "Down regulated"}, {"measurement": "TNF gene Regulation", "setting": "SCC cells; at 6 hours", "result": "Down regulated"}, {"measurement": "VEGFA gene Regulation", "setting": "SCC cells; at 6 hours", "result": "Down regulated"}, {"measurement": "levels of Bcl2", "setting": "normal fibroblast", "result": "no effect"}, {"measurement": "mRNA's being affected (Apoptosis array)", "setting": "SkBr-3 cells; Q10 (24 hr)", "result": "Bcl2, Bcl2L1, Bcl2L11, Birc6, Bax, Xiap, Hprt1, Apaf1, Ab11, Braf"}, {"measurement": "Bcl-xl mRNA level", "setting": "SkBr-3 cells; one of the highest", "result": "significant up-regulation"}, {"measurement": "OCR values", "setting": "[2]", "result": "consistent reduction"}, {"measurement": "OCR values", "setting": "[3]", "result": "consistent reduction"}]}
